For this assay, the target named is T1, human mAChR M1 (Homo sapiens, UniProt P11229).
T1 sequence (P11229 1-460): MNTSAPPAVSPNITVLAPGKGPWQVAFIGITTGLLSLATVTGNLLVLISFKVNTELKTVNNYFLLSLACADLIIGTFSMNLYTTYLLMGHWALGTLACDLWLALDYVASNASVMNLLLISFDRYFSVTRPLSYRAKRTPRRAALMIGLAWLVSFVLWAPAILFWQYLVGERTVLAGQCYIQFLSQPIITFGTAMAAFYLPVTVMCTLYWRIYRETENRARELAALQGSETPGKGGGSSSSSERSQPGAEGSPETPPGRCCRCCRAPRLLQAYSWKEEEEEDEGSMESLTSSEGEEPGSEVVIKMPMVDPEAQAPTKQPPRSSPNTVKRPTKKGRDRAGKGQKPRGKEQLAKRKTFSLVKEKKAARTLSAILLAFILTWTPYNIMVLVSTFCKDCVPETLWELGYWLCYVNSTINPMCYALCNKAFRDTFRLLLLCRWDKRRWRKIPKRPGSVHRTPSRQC
Briefly: mAChR M1 cell-based functional assay (calcium mobilization, PAM mode). Conditions: CHO-K1 cells stably expressing hM1, calcium flux (Fluo-4); for Emax: potentiation of EC20 acetylcholine response; for EC50: concentration-dependent increase in the EC20 acetylcholine response. An excerpt:
Chinese hamster ovary (CHO-K1) cells stably expressing rat (r)M1 were purchased from the American Type Culture Collection and cultured according to their indicated protocol. CHO cells stably expressing human (h)M2, hM3, and hM5 were described previously (Levey, et al., 1991); hM1 and hM4 cDNAs were purchased from Missouri S&T cDNA Resource; rM4 cDNA was provided by T. I. Bonner (National Institutes of Health, Bethesda, MD). rM2 and rM3 were cloned from a rat brain cDNA library and sequence verified. hM1, rM2, rM3, hM4, and rM4 cDNAs were used to stably transfect CHO-K1 cells purchased from the American Type Culture Collection using Lipofectamine2000. To make stable rM2, hM2, rM3, hM4, and rM4 cell lines for use in calcium mobilization assays, these cells also were stably transfected with a chimeric G-protein (Gqi5) (provided by B. R. Conklin, University of California, San Francisco) using Lipofectamine 2000. rM1, hM1, rM3, hM3, rM5, and hM5 cells were grown in Ham's F-12 medium containing 10% heat-inactivated fetal bovine serum (FBS), 20 mM HEPES, and 50 μg/mL G418 sulfate. rM2-Gqi5, hM2-Gqi5, and hM4-Gqi5 cells were grown in the same medium also containing 500 μg/mL Hygromycin B. Stable rM4-Gqi5 cells were grown in DMEM containing 10% heat-inactivated FBS, 20 mM HEPES, 400 μg/mL G418 sulfate, and 500 μg/mL Hygromycin B.
For high throughput measurement of agonist-evoked increases in intracellular calcium, CHO-K1 cells stably expressing muscarinic receptors were plated in growth medium lacking G418 and hygromycin at 15,000 cells/20 μL/well in Greiner 384-well black-walled, tissue culture (TC)-treated, clear-bottom plates (VWR). Cells were incubated overnight at 37° C. and 5% CO2. The next day, cells were washed using an ELX 405 (BioTek) with four washes (80 μL) of assay buffer then aspirated to 20 μL. Next, 20 μL of 16 μM Fluo-4/acetoxymethyl ester (Invitrogen, Carlsbad, CA) prepared as a 2.3 mM stock in DMSO and mixed in a 1:1 ratio with 10% (w/v) Pluronic F-127 and diluted in assay buffer was added to the wells and the cell plates were incubated for 50 min at 37° C. and 5% CO2. Dye was removed by washing with the ELX 405 (four […], washes of assay buffer) then aspirated to 20 μL. Compound master plates were formatted in an 11 point CRC format (1:3 dilutions) in 100% DMSO with a starting concentration of 10 mM using the BRAVO liquid handler (Agilent). Test compound CRCs were then transferred to daughter plates (240 nL) using the Echo acoustic plate reformatter (Labcyte, Sunnyvale, CA) and then diluted into assay buffer (40 μL) to a 2× stock using a Thermo Fisher Combi (Thermo Fisher Scientific, Waltham, MA).
Calcium flux was measured using the Functional Drug Screening System (FDSS) 6000 (Hamamatsu Corporation, Tokyo, Japan) as an increase in the fluorescent static ratio. Compounds were applied to cells (20 μL, 2×) using the automated system of the FDSS 6000 at 4 s into the 300 s protocol and the data were collected at 1 Hz. At 144 s into the 300 s protocol, 10 μL of an EC20 concentration of the muscarinic receptor agonist acetylcholine was added (5×), followed by the addition of 12 μL an EC80 concentration of acetylcholine at the 230 s time point (5×). Agonist activity was analyzed as a concentration-dependent increase in calcium mobilization upon compound addition. Emax values for agonist activity are expressed relative to the maximum for acetylcholine. Positive allosteric modulator activity was analyzed as a concentration-dependent increase in the EC20 acetylcholine response. Antagonist activity was analyzed as a concentration-dependent decrease in the EC80 acetylcholine response. Concentration-response curves were generated using a four-parameter logistical equation in XLfit curve fitting software (IDBS, Bridgewater, NJ) for Excel (Microsoft, Redmond, WA) or Prism (GraphPad Software, Inc., San Diego, CA). […]
Background: Calcium assays in cells follow changes in intracellular calcium, usually with a dye or a luminescent sensor.

For orientation: Emax means the maximal effect, on the per cent scale that the assay sets. Turning to `Cn1ccc(-c2ccc(Cc3cc4c(c(C(=O)N[C@H]5CC[C@@H]5O)c3)OCO4)cn2)n1` [Compound 13, N-[(1S,2S)-2-hydroxycyclobutyl]-6-[[6-(1-methylpyrazol-3-yl)-3-pyridyl]methyl]-1,3-benzodioxole-4-carboxamide], the Emax amounted to 65%. Consider `Cn1ccc(-c2ccc(Cc3cc4c(c(C(=O)NC5CC6(COC6)C5)c3)OCO4)cn2)n1` [Compound 14, 6-[[6-(1-methylpyrazol-3-yl)-3-pyridyl]methyl]-N-(2-oxaspiro[3.3]heptan-6-yl)-1,3-benzodioxole-4-carboxamide], for which the Emax came to 57%. For the compound `Cn1ccc(-c2ccc(Cc3cc4c(c(C(=O)NC5CCOCC5)c3)OCO4)cn2)n1` [Compound 15, 6-[[6-(1-methylpyrazol-3-yl)-3-pyridyl]methyl]-N-tetrahydropyran-4-yl-1,3-benzodioxole-4-carboxamide], the Emax was 49%. Usually EC50 stands for the concentration that produces a half-maximal response. `Cc1nc(-c2ccc(Cc3cc4c(c(C(=O)N[C@H]5CCOC[C@@H]5O)c3)OCO4)cc2)co1` [Compound 16, N-[(3R,4S)-3-hydroxytetrahydropyran-4-yl]-6-[[4-(2-methyloxazol-4-yl)phenyl]methyl]-1,3-benzodioxole-4-carboxamide]: the EC50 came out at 1810 nM and the Emax came to 78%. As for `Cc1nc(-c2ccc(Cc3cc4c(c(C(=O)N[C@H]5CCCC[C@@H]5O)c3)OCO4)cc2)co1` [Compound 17, N-[(1S,2S)-2-hydroxycyclohexyl]-6-[[4-(2-methyloxazol-4-yl)phenyl]methyl]-1,3-benzodioxole-4-carboxamide], the EC50 is 1150 nM and the Emax turned out to be 66%.

For `Cc1c(Cc2ccc(-n3cccn3)cc2)cc(C(=O)N[C@H]2CCOC[C@@H]2O)c2c1OCO2` [Compound 18, N-[(3R,4S)-3-hydroxytetrahydropyran-4-yl]-7-methyl-6-[(4-pyrazol-1-ylphenyl)methyl]-1,3-benzodioxole-4-carboxamide], the EC50 is 260 nM and the Emax stood at 75%. In the same order, the values of `Cc1c(Cc2ccc(-n3cccn3)cc2)cc(C(=O)N[C@H]2CCCC[C@@H]2O)c2c1OCO2` [Compound 19, N-[(1S,2S)-2-hydroxycyclohexyl]-7-methyl-6-[(4-pyrazol-1-ylphenyl)methyl]-1,3-benzodioxole-4-carboxamide] are 420 nM and 78%. The corresponding values for `Cc1c(Cc2ccc(-c3ccn(C)n3)cc2)cc(C(=O)N[C@H]2CCOC[C@@H]2O)c2c1OCO2` [Compound 20, N-[(3R,4S)-3-hydroxytetrahydropyran-4-yl]-7-methyl-6-[[4-(1-methylpyrazol-3-yl)phenyl]methyl]-1,3-benzodioxole-4-carboxamide] are 330 nM and 88%. Consider `Cc1c(Cc2ccc(-c3ccn(C)n3)cc2)cc(C(=O)N[C@H]2CCCC[C@@H]2O)c2c1OCO2` [Compound 21, N-[(1S,2S)-2-hydroxycyclohexyl]-7-methyl-6-[[4-(1-methylpyrazol-3-yl)phenyl]methyl]-1,3-benzodioxole-4-carboxamide], for which the EC50 was 410 nM and the Emax was 80%. The corresponding values for `[2H]C1([2H])Oc2c(C(=O)N[C@H]3CCOC[C@@H]3O)cc(Cc3ccc(-n4cccn4)cc3)c(C)c2O1` [Compound 22, 6-(4-(1H-pyrazol-1-yl)benzyl)-N-((3R,4S)-3-hydroxytetrahydro-2H-pyran-4-yl)-7-methylbenzo[d][1,3]dioxole-2,2-d2-4-carboxamide] are 44 nM and 72%.

Consider `[2H]C1([2H])Oc2c(C(=O)N[C@H]3CCCC[C@@H]3O)cc(Cc3ccc(-n4cccn4)cc3)c(C)c2O1` [Compound 23, 6-(4-(1H-pyrazol-1-yl)benzyl)-N-((1S,2S)-2-hydroxycyclohexyl)-7-methylbenzo[d][1,3]dioxole-2,2-d2-4-carboxamide], for which the EC50 came to 210 nM and the Emax amounted to 75%. In the same order, the values of `[2H]C1([2H])Oc2c(C(=O)N[C@H]3CCC[C@@H]3O)cc(Cc3ccc(-n4cccn4)cc3)c(C)c2O1` [Compound 24, 6-(4-(1H-pyrazol-1-yl)benzyl)-N-((1S,2S)-2-hydroxycyclopentyl)-7-methylbenzo[d][1,3]dioxole-2,2-d2-4-carboxamide] are 1000 nM and 70%.

The values above are taken from patent publication US12065433B2, “Positive allosteric modulators of the muscarinic acetylcholine receptor M1” (Vanderbilt University, priority 2018, dated 2024).
